Eight compounds from ChEMBL document CHEMBL5257106, “Design, synthesis, and biological evaluation of novel HDAC inhibitors with a 3-(benzazol-2-yl)quinoxaline framework” (Bioorg Med Chem Lett, 2023) can be followed below.

For one data set, the system named is PANC-1. Put plainly: Antiproliferative activity against human PANC-1 cells assessed as inhibition of cell growth by MTT assay. Format: functional, cell-based. (In general: Tetrazolium dyes change colour on reduction, which living cells bring about.)
For data set [1], the system named is HCT-116. Put plainly: Antiproliferative activity against human HCT-116 cells assessed as inhibition of cell growth by MTT assay. Format: functional, cell-based.
Data set [2] is described as follows: Cytotoxicity against HUVEC cells assessed as inhibition of cell growth by MTT assay. The note with it: human.
The test system of the next data set is MCF7. Put plainly: Antiproliferative activity against human MCF7 cells assessed as inhibition of cell growth by MTT assay. Format: functional, cell-based.
For the next data set, the system named is A2780. Put plainly: Antiproliferative activity against human A2780 cells assessed as inhibition of cell growth by MTT assay. Format: functional, cell-based.
For data set [3], the system named is HCT-116. Put plainly: Induction of cell cycle arrest in human HCT-116 assessed as S phase cells at 1 uM incubated for 48 hrs by flow cytometric analysis (reference value: 12.79%). Format: functional.
The subject of data set [4] is HCT-116. Put plainly: Induction of apoptosis in human HCT-116 cells assessed as necrotic cells at 1 uM incubated for 24 hrs by Annexin V-FITC/PI staining based flow cytometry analysis (reference value: 0.00%). Format: functional.
The subject of data set [5] is HCT-116. Briefly: Induction of cell cycle arrest in human HCT-116 assessed as increase in G2/M phase cells at 1 uM incubated for 48 hrs by flow cytometric analysis (reference value: 23.70%). Format: functional.
Data set [6] deals with HCT-116. Briefly: Induction of apoptosis in human HCT-116 cells assessed as late apoptotic cells at 1 uM incubated for 24 hrs by Annexin V-FITC/PI staining based flow cytometry analysis (reference value: 0.323%). Format: functional. A general note: In flow cytometry, cells or beads pass a laser one at a time.
In data set [7] the test system is HCT-116. Put plainly: Induction of cell cycle arrest in human HCT-116 assessed as decrease in G0/G1 phase cells at 1 uM incubated for 48 hrs by flow cytometric analysis (reference value: 63.51%). More on the design: scale not given: the % may be the effect or the level left. Format: functional.
The subject of data set [8] is HCT-116. Briefly: Induction of apoptosis in human HCT-116 cells assessed as total apoptotic cells at 1 uM incubated for 24 hrs by Annexin V-FITC/PI staining based flow cytometry analysis (reference value: 6.823%). Format: functional.
The test system of data set [9] is HCT-116. Briefly: Induction of apoptosis in human HCT-116 cells assessed as viable cells at 1 uM incubated for 24 hrs by Annexin V-FITC/PI staining based flow cytometry analysis (reference value: 93.2%). Format: functional.
For data set [10], the system named is HCT-116. Briefly: Induction of apoptosis in human HCT-116 cells assessed as early apoptotic cells at 1 uM incubated for 24 hrs by Annexin V-FITC/PI staining based flow cytometry analysis (reference value: 6.50%). Format: functional.
The next data set has as its system RS4-11. Put plainly: Antiproliferative activity against human RS4-11 cells assessed as inhibition of cell growth by MTT assay. Format: functional, cell-based.
Another data set has as its system K562. Put plainly: Antiproliferative activity against human K562 cells assessed as inhibition of cell growth by MTT assay. Format: functional, cell-based.
A further data set concerns HL-60. Put plainly: Antiproliferative activity against human HL-60 cells assessed as inhibition of cell growth by MTT assay. Format: functional, cell-based.

A word on the IC50: it is the concentration that inhibits the measured activity by half. For `Nc1ccccc1NC(=O)CCCCCCNc1nc2ccccc2nc1-c1nc2ccccc2o1`, the IC50 was found to be 11 µM in the data set with PANC-1; 6.51 µM in the data set with HCT-116 [1]; 16.7 µM in [2]; 7.33 µM in the data set with MCF7; 17.9 µM with A2780.

`O=C(CCCCCCC(=O)Nc1ccccc1)NO` [VORINOSTAT]: the Activity is recorded as 11.02% with HCT-116 [3]; 0.146% with HCT-116 [4]; 30.87% in the data set with HCT-116 [5]; 6.59% with HCT-116 [6]; 58.11% in the data set on HCT-116 [7]; 41.49% in the data set on HCT-116 [8]. Moreover, the Activity with HCT-116 [9] was found to be 58.4%; in the data set on HCT-116 [10], 34.9%.

With `O=C(CCCCCCCNc1nc2ccccc2nc1-c1nc2ccccc2o1)NO`, the IC50 was 2.87 µM in the data set with PANC-1; 3.04 µM in the data set with HCT-116 [1]; 890 nM in the data set with RS4-11; 17.4 µM in [2]; 890 nM in the data set with K562; 1.52 µM with MCF7. In addition, the results for the IC50 in the data set with HL-60 and with A2780 were 890 nM and 3.27 µM, respectively.

Consider `O=C(CCCCCNc1nc2ccccc2nc1-c1nc2ccccc2o1)NO`, for which the IC50 in the data set with PANC-1 was determined as 1.92 µM; in the data set on HCT-116 [1], 2.44 µM; in data set [2], 16.4 µM; with MCF7 it was 3.69 µM; with A2780 it was 4.07 µM.

Regarding `Nc1ccccc1NC(=O)CCCNc1nc2ccccc2nc1-c1nc2ccccc2o1`, the half-inhibitory concentration (IC50) in the data set on PANC-1 is 21.6 µM; in the data set on HCT-116 [1] it was 17.2 µM; in [2], 27.2 µM; in the data set on MCF7, 33.5 µM; with A2780, 23.9 µM.

On to `Nc1ccccc1NC(=O)CCCCCCCNc1nc2ccccc2nc1-c1nc2ccccc2o1`, for which the IC50 with PANC-1 was determined as 10.5 µM; in the data set on HCT-116 [1], 9.08 µM; in data set [2], 21.5 µM; in the data set with MCF7 it was 12.5 µM; in the data set with A2780, 7.13 µM.

Take `O=C(CCCNc1nc2ccccc2nc1-c1nc2ccccc2o1)NO`: the IC50 with PANC-1 is 3.68 µM; in the data set on HCT-116 [1], 4.59 µM; in data set [2], 24 µM; in the data set on MCF7, 4.98 µM; with A2780 it was 6.29 µM.

For the compound `Nc1ccccc1NC(=O)CCCCCNc1nc2ccccc2nc1-c1nc2ccccc2o1`, the IC50 was determined as 11.2 µM in the data set with PANC-1; 9.94 µM with HCT-116 [1]; 15.3 µM in [2]; 9.36 µM with MCF7; 12.6 µM in the data set on A2780.
